Values quoted from earlier work as cited in patent US9339504B2, “Orally disintegrating tablet compositions of lamotrigine” (ADARE Pharmaceuticals, Inc., priority 2007, dated 2016).
Values after ≈ are worked out from the molar mass of the structure shown. Where two headings read alike, the source gives them in different places.

Structure (SMILES): Nc1nnc(-c2cccc(Cl)c2Cl)c(N)n1 [Lamotrigine, 3,5-diamino-6-(2,3,-dichlorophenyl)-1,2,4-triazine]
- solubility in 0.01N HCl (0.01N HCl, 25° C.): ~3000 µg/mL (≈ 11.7 mM)
- solubility in 0.1N HCl (0.1N HCl, 25° C.): ~4000 µg/mL (≈ 15.6 mM)
- solubility in water (25° C.): ~170 µg/mL (≈ 0.664 mM)
- solubility in water (37° C.): ~570 µg/mL (≈ 2.23 mM)
